Data reported in publication PMC2785468, “Androgen Receptor Mutations Associated with Androgen Insensitivity Syndrome: A High Content Analysis Approach Leading to Personalized Medicine” (PLoS ONE, 2009).
Numbering of substitutions follows the chain as printed.

Columns and labels:
P766S = test system: P766S; design: method as in PMID 7929841; conditions: cited from earlier work
AR-P766S = biological target: T1, AR-P766S (Homo sapiens, UniProt P10275, P767S); type: cell-based; conditions: doses of 200 nM, compared with wt AR at 0.2 nM
T1 construct: segments AR 624-919 (wild type or containing mutations F764L, R840C, and P766S); expressed in transfected cells; host or cells: HeLa, transient co-transfection
T1 sequence (P10275 624-919 P767S): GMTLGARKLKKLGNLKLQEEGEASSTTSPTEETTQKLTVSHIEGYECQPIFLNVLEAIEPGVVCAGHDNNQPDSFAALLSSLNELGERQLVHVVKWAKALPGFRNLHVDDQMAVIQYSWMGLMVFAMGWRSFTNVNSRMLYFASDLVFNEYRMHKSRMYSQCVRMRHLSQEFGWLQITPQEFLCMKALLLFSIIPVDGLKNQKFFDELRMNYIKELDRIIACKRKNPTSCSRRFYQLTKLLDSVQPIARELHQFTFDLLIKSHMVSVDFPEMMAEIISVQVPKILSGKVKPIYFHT
T1 sequence (P10275 1-660 partner limits assumed): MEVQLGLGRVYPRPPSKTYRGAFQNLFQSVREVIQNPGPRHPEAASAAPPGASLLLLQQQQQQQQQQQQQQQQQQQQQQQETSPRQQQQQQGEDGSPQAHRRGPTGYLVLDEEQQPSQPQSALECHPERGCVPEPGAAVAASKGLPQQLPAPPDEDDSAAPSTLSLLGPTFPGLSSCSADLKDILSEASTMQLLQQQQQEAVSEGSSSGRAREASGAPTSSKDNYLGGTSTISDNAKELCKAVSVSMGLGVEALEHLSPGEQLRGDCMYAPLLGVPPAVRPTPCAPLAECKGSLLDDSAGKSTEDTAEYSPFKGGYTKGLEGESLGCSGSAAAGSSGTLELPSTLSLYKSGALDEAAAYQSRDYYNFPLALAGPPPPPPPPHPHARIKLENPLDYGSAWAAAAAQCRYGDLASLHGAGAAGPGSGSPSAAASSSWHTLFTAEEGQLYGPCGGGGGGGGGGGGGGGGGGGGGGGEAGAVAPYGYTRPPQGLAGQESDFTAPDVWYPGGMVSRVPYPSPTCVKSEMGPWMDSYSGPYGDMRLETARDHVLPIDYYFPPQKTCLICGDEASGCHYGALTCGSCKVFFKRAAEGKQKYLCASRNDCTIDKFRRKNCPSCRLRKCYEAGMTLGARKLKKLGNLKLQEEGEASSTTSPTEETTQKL
Procedure: (§1) An interaction between COOH terminal AF2 (activation function 2) and NH2 terminal sequence F^23XXLF^27 is an important step toward the activation of AR [30]. The NC-TDI was measured using the reagents of the CheckMate™/Flexi® Vector Mammalian Two-Hybrid System, Promega (Madison, WI). […] One day before transfection, 1.5×10^6 Hela cells were seeded into a 60 mm dish. […] After 12 hours of transfection, cells were trypsinized and equally seeded into nine wells of a 12 well plate, with one well treated with vehicle and others with various concentration of different ligand. After 24 h of treatment, luciferase activity was assayed with the Promega Dual Glo assay kit, using a luminometer (PerkinElmer). Data represent the average±SD of three independent experiments, are expressed as fold-induction compared with negative control, and represent the units of firefly luciferase corrected for the units of renilla luciferase detected in the same plate.
as §1, with “Figure 3 NH2-COOH-terminal domain” for “An”, “(NC-TDI) assay.” for “between COOH terminal AF2 (activation function 2) and NH2 terminal sequence F^23XXLF^27 is an important step toward the activation of AR [30]. The NC-TDI was measured using the reagents of the CheckMate™/Flexi® Vector Mammalian Two-Hybrid System, Promega (Madison, WI).”, “HeLa” for “Hela”, “c/w” for “compared with”

AR-R840C = biological target: T2, AR-R840C (Homo sapiens, UniProt P10275, R841C); type: cell-based
T2 construct: segments AR 624-919 (wild type or containing mutations F764L, R840C, and P766S); expressed in transfected cells; host or cells: HeLa, transient co-transfection
T2 sequence (P10275 624-919 R841C): T1 sequence (P10275 624-919 P767S) with S144P, R218C
T2 sequence (P10275 1-660 partner limits assumed): T1 sequence (P10275 1-660 partner limits assumed)
Procedure: as §1
as §1, with “Figure 3 NH2-COOH-terminal domain” for “An”, “(NC-TDI) assay.” for “between COOH terminal AF2 (activation function 2) and NH2 terminal sequence F^23XXLF^27 is an important step toward the activation of AR [30]. The NC-TDI was measured using the reagents of the CheckMate™/Flexi® Vector Mammalian Two-Hybrid System, Promega (Madison, WI).”, “HeLa” for “Hela”, “c/w” for “compared with”

wild type AR = biological target: T3, wild type AR (Homo sapiens, UniProt P10275); type: cell-based; conditions: ligands at 0.2–200 nM, 24 h
T3 construct: segments AR 624-919 (wild type or containing mutations F764L, R840C, and P766S); expressed in transfected cells; host or cells: HeLa, transient co-transfection
T3 sequence (P10275 624-919): T1 sequence (P10275 624-919 P767S) with S144P
T3 sequence (P10275 1-660 partner limits assumed): T1 sequence (P10275 1-660 partner limits assumed)
Procedure: as §1
as §1, with “Figure 3 NH2-COOH-terminal domain” for “An”, “(NC-TDI) assay.” for “between COOH terminal AF2 (activation function 2) and NH2 terminal sequence F^23XXLF^27 is an important step toward the activation of AR [30]. The NC-TDI was measured using the reagents of the CheckMate™/Flexi® Vector Mammalian Two-Hybrid System, Promega (Madison, WI).”, “HeLa” for “Hela”, “c/w” for “compared with”

AR-F764L = biological target: T4, AR-F764L (Homo sapiens, UniProt P10275, F765L); type: cell-based
T4 construct: segments AR 624-919 (wild type or containing mutations F764L, R840C, and P766S); expressed in transfected cells; host or cells: HeLa, transient co-transfection
T4 sequence (P10275 624-919 F765L): T1 sequence (P10275 624-919 P767S) with F142L, S144P
T4 sequence (P10275 1-660 partner limits assumed): T1 sequence (P10275 1-660 partner limits assumed)
Procedure: as §1
as §1, with “Figure 3 NH2-COOH-terminal domain” for “An”, “(NC-TDI) assay.” for “between COOH terminal AF2 (activation function 2) and NH2 terminal sequence F^23XXLF^27 is an important step toward the activation of AR [30]. The NC-TDI was measured using the reagents of the CheckMate™/Flexi® Vector Mammalian Two-Hybrid System, Promega (Madison, WI).”, “HeLa” for “Hela”, “c/w” for “compared with”

C[C@@H]1CC2=CC(=O)CC[C@@H]2[C@H]2CC[C@@]3(C)[C@@H](CC[C@]3(C)O)[C@@H]21 [Mb, Mibolerone]
transcriptional activity, % of control (P766S): 120%
NC-TDI rescue (in words) (AR-P766S): rescue the NC-TDI response to the levels observed with wt AR
concentration at which the NC-TDI response saturated (AR-R840C): 2 nM
NC-TDI maximal response (luciferase activity) (wild type AR): 7.1 fold increase
NC-TDI, % of wild type receptor (AR-F764L; at 0.2 nM): 10%
NC-TDI response (AR-F764L; at 200 nM): 3.1 fold
